US20200339544A1 (JOINT STOCK COMPANY "BIOCAD", priority 2017, published 2020)
Where two headings read alike, the source gives them in different places. Marks after values point to notes of the source that are not given here.

Tests used:
[1] = system: HCC827 (lung adenocarcinoma, SM, exon19delE746-A750); assay: Antiproliferative activity on HCC827 cells (Alamar Blue); format: cell-based; conditions: Homo sapiens, antiproliferative test
Procedure, shortened: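 HCC827 cells (EGFR exon19del E746-A750), 10×10^3/well, attached 16–18 h, then exposed to compounds for 72 h at 37 °C in RPMI-1640 with 2% FBS, ≤1% DMSO. Viability by Alamar Blue fluorescence (ex 540/em 590 nm) after 3–5 h; IC50 by four-parameter logistic fit.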

[2] = Chemical stability in simulated intestinal fluid (SIF); format: physicochemical; conditions: SIF without enzymes, pH 6.5; 10 μm; 2 hours at 37° C.; substance amount remaining
Method: (§1) 1) Determination of chemical stability in simulated intestinal fluid, simulated gastric fluid and human blood plasma.
(§2) SGF concentrate without enzymes, pH=1,4 (Sigma Ireland, cat #01651) was used as simulated gastric fluid. Initial candidate solution (10 mM in DMSO) was diluted with a SGF working solution to a concentration of 10 μm (test solution). The test solution was incubated in a dry block thermostat for 2 hours at 37° C. SIF concentrate without enzymes, pH=6.5 (Sigma Ireland, cat #55331) was used as simulated intestinal fluid. Initial candidate solution (10 mM in DMSO) was diluted with a SIF working solution to a concentration of 10 μm (test solution). The test solution was incubated in a dry block thermostat for 2 hours at 37° C. HPLC with Agilent 1200 liquid chromatography system (Agilent, USA) was employed to determine peak areas of the compounds in test samples, said peak areas corresponding to the initial test time (prior to incubation) and the final test time (after incubation in a dry block thermostat for 2 hours at 37° C.). We used gradient elution (1 mL/min flow rate). Substance amount in % in a sample after thermostatting was determined.
(§3) The stability of the compounds was estimated.

[3] = system: A549 (lung adenocarcinoma, WT); assay: Antiproliferative activity on A549 cells (Alamar Blue); format: cell-based; conditions: Homo sapiens, antiproliferative test
Procedure, shortened: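 Viability read by Alamar Blue fluorescence (λEx 540, λEm 590 nm) 3-5 h after dye addition, following 72 h compound treatment at 37° C in 2% FBS RPMI-1640, ≤1% DMSO. Seeding 5*10^3 cells/well, 16-18 h attachment. Four-parameter logistic model gave IC50.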

[4] = Chemical stability in simulated gastric fluid (SGF); format: physicochemical; conditions: SGF without enzymes, pH 1,4; 10 μm; 2 hours at 37° C.; substance amount remaining
Method: as §1, §2, §3

[5] = system: H1975 (lung adenocarcinoma, DM, L828R/T790M); assay: Antiproliferative activity on H1975 cells (Alamar Blue); format: cell-based; conditions: for IC50: Homo sapiens, NCI-H1975, H1975 cells; for SI IC50(A549)/IC50(DM): selectivity index, A549 vs H1975 cells
Procedure, shortened: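 IC50 was fitted with a four-parameter logistic model to Alamar Blue fluorescence (540/590 nm), read 3-5 h after dye addition. Before that, compounds acted on attached H1975 cells, 15*10^3 per well in 2% FBS RPMI-1640, for 72 h at 37 °C, DMSO no more than 1%.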

[6] = General cytotoxicity on HepG2 cells; format: cell-based; conditions: human; general cytotoxicity, HepG2 cells, 72 hours, average of several tests
Procedure, shortened: (§4)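 HepG2 cells seeded at 2*10^4 cells per well and compounds added in DMEM with 2% FBS for 72 h at 37 °C. Viability read with Alamar Blue and CC50 derived as for IC50. Therapeutic index taken as HepG2 CC50 over H1975 IC50.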

HepG2 cells = assay: General cytotoxicity on HepG2 cells; format: cell-based; conditions: therapeutic index, CC50 HepG2 / IC50 H1975
Procedure, shortened: as §4

[7] = average values obtained in several tests, Table 16, read-out: H1975 (DM) IC50
[8] = antiproliferative test, Table 15, read-out: IC50 H1975 (DM)

With `C=CC(=O)Nc1cc(Nc2cc(C(=O)c3ccc(N4CC(OC)C4)cc3)ccn2)c(OC)cc1N(C)CCN(C)C` (racemic) [EGFR_3365_53, N-(2-((2-(dimethylamino)ethyl)(methyl)amino)-4-methoxy-5-((4-(4-(3-methoxyazetidin-1-yl)benzoyl)pyridin-2-yl)amino)phenyl)acrylamide] the IC50 [1] was 0.0266 µM, the “Stability in SIF, %” value [2] was 98.8% and the IC50 [3] was 8.23 µM. For the same compound, the “Stability in SGF, %” value [4] was 100.0%, the IC50 [5, 7] was 0.0449 µM and the IC50 [5, 8] was 0.0449 µM. For the same compound, the “SI IC50(A549)/IC50(DM)” value [5] was 183, the CC50 at 72 h [6] was 20.6 µM and the “TI, CC50/IC50” value (HepG2 cells) was 457.

With `C=CC(=O)Nc1cc(Nc2nccc(C(=O)c3ccccc3C(F)(F)F)n2)c(OC)cc1N(C)CCN(C)C` [EGFR_3365, N-(2-((2-(dimethylamino)ethyl) (methyl)amino)-4-methoxy-5-((4-(2-(trifluoromethyl)benzoyl)pyrimidin-2-yl)amino)phenyl)acrylamide] the IC50 [1] was 0.0143 µM, the “Stability in SIF, %” value [2] was 100.0% and the IC50 [3] was > 10 µM. The “Stability in SGF, %” value [4] was 100.0%, the IC50 [5, 7] was 0.0601 µM and the IC50 [5, 8] was 0.0601 µM. For the same compound, the “SI IC50(A549)/IC50(DM)” value [5] was >166**, the CC50 at 72 h [6] was 25.4 µM and the “TI, CC50/IC50” value (HepG2 cells) was 423.

With `C=CC(=O)Nc1cc(Nc2cc(C(=O)c3ccccc3)ccn2)c(OC)cc1N(C)CCN(C)C` [EGFR_3365_3, N-(5-((4-benzoylpyridin-2-yl)amino)-2-((2-(dimethylamino)ethyl)(methyl)amino)-4-methoxyphenyl)acrylamide] the IC50 [1] was 0.0023 µM, the “Stability in SIF, %” value [2] was 100.0% and the IC50 [3] was 6.07 µM. The “Stability in SGF, %” value [4] was 100.0%, the IC50 [5, 7] was 0.0445 µM and the IC50 [5, 8] was 0.0445 µM. For the same compound, the “SI IC50(A549)/IC50(DM)” value [5] was 136.32, the CC50 at 72 h [6] was 15.2 µM and the “TI, CC50/IC50” value (HepG2 cells) was 341.

In the case of `C=CC(=O)Nc1cc(Nc2nccc(C(=O)c3ccc(N4CCCCC4)cc3)n2)c(OC)cc1N(C)CCN(C)C` [EGFR_3365_90, N-(2-((2-(dimethylamino)ethyl)(methyl)amino)-4-methoxy-5-((4-(4-(piperidin-1-yl)benzoyl)pyrimidin-2-yl)amino)phenyl)acrylamide], the IC50 [1] is reported as 0.00439 µM, the IC50 [3] is reported as 5.3 µM and the IC50 [5, 7] is reported as 0.005 µM. The IC50 [5, 8] was 0.00758 µM, the “SI IC50(A549)/IC50(DM)” value [5] was 1060 and the CC50 at 72 h [6] was 12.8 µM. The “TI, CC50/IC50” value (HepG2 cells) was 1689.

With `C=CC(=O)Nc1cc(Nc2nccc(C(=O)c3cc4ccccc4n3C)n2)c(OC)cc1N(C)CCN(C)C` [EGFR_3365_94, N-(2-((2-(dimethylamino)ethyl) (methyl)amino)-4-methoxy-5-((4-(1-methyl-1H-indole-2-carbonyl)pyrimidin-2-yl)amino)phenyl)acrylamide] the IC50 [3] was 6.9 µM, the IC50 [5, 7] was 0.00665 µM and the IC50 [5, 8] was 0.00665 µM. The “SI IC50(A549)/IC50(DM)” value [5] was 1037, the CC50 at 72 h [6] was 12 µM and the “TI, CC50/IC50” value (HepG2 cells) was 1801.

Work on `C=CC(=O)Nc1cc(Nc2nccc(C(=O)c3ccc(OC)cc3OCCC)n2)c(OC)cc1N(C)CCN(C)C` [EGFR_3365_102, N-(2-((2-(dimethylamino)ethyl)(methyl)amino)-4-methoxy-5-((4-(4-methoxy-2-propoxybenzoyl)pyrimidin-2-yl)amino)phenyl)acrylamide] yielded an IC50 [3] of 5.57 µM, an IC50 [5, 7] of 0.0805 µM and an IC50 [5, 8] of 0.0805 µM. The “SI IC50(A549)/IC50(DM)” value [5] was 69, the CC50 at 72 h [6] was 27.5 µM and the “TI, CC50/IC50” value (HepG2 cells) was 342.

Compound `C=CC(=O)Nc1cc(Nc2nccc(C(=O)c3ccc(N4CCC(N)CC4)cc3)n2)c(OC)cc1N(C)CCN(C)C` [EGFR_3365_121, N-(5-((4-(4-(4-aminopiperidin-1-yl)benzoyl)pyrimidin-2-yl)amino)-2-((2-(dimethylamino)ethyl)(methyl)amino)-4-methoxyphenyl)acrylamide] has an IC50 [1] of 0.0152 µM, an IC50 [3] of 8.35 µM and an IC50 [5, 7] of 0.00421 µM. The IC50 [5, 8] was 0.00421 µM, the “SI IC50(A549)/IC50(DM)” value [5] was 1983 and the CC50 at 72 h [6] was 75.1 µM. The “TI, CC50/IC50” value (HepG2 cells) was 17832.
